According to patent US8288375B2, “Fungicidal bicyclic pyrazoles” (E.I. du Pont de Nemours and Company, priority 2007, dated 2012):

Assays:
Format in all cases: in vivo
Septoria tritici = assay: Test E: wheat leaf blotch, test suspension sprayed on wheat seedlings, disease rating; settings: 200 ppm test suspension;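 also: 200 ppm unless marked * meaning 40 ppm or ** meaning 10 ppm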
Septoria nodorum = assay: Test D: wheat glume blotch, test suspension sprayed on wheat seedlings, disease rating; settings: 200 ppm test suspension
Phytophthora infestans = assay: whole plant or invertebrate; settings: 200 ppm test suspension
[1] = system: Erysiphe graminis f. sp. tritici; assay: Test A: wheat powdery mildew, test suspension sprayed on wheat seedlings, disease rating; settings: 200 ppm test suspension; 100 = 100% disease control, 0 = no control
[2] = system: Puccinia recondite f sp. tritici; assay: Test B: wheat leaf rust, test suspension sprayed on wheat seedlings, disease rating; settings: 200 ppm test suspension;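 also: 200 ppm unless marked * meaning 40 ppm or ** meaning 10 ppm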
Pythium aphanidermatum = assay: Test L: bluegrass pythium blight, test suspension sprayed on bluegrass seedlings, disease rating; settings: 200 ppm test suspension;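 also: 200 ppm unless marked * meaning 40 ppm or ** meaning 10 ppm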
Fusarium graminearum = assay: whole plant or invertebrate; settings: 200 ppm test suspension

Row | Structure (SMILES) | Test E disease control rating (Septoria tritici) | Test D disease control rating (Septoria nodorum) | Test J disease control rating (Phytophthora infestans) | Test A disease control rating [1] | Test B disease control rating [2] | Test L disease control rating (Pythium aphanidermatum) | Test C disease control rating (Fusarium graminearum)
1 | CCC(CO)Nc1nccc(-c2c(-c3ccc(F)cc3)nn3c2CCCC3)n1 (stereo not drawn) [compound 31] | 98% | 78% | 80% | 0% | 95% | 99% | 94%
2 | Fc1ccc(-c2nn3c(c2-c2ccnc(NCC4CCCO4)n2)CCCC3)cc1 (stereo not drawn) [compound 34] | 94% | 100% | 91% | 96% | 100% | 100% | 98%
3 | C[Si](C)(C)CNc1nccc(-c2c(-c3ccc(F)cc3)nn3c2CCCC3)n1 [compound 35] | 100% | 99% | 67% | 0% | 99% | 0% | 99%
4 | CC(C)Nc1nccc(-c2c(-c3ccccc3F)nn3c2CCCC3)n1 [compound 36] | 96% | 96% | 90% | 0% | 91% | 99% | 99%
5 | OCCCNc1nccc(-c2c(-c3ccc(F)cc3)nn3c2CCCC3)n1 [compound 37] | 68% | 0% | 95% | 70% | 86% | 93% | 96%
6 | CC(CO)Nc1nccc(-c2c(-c3ccccc3F)nn3c2CCCC3)n1 (stereo not drawn) [compound 38] | 92% | 64% | 95% | 0% | 94% | 99% | 96%
7 | Fc1ccc(-c2nn3c(c2-c2ccnc(NCc4cccs4)n2)CCCC3)cc1 [compound 39] | 88% | 60% | 0% | 0% | 67% | 0% | 60%
8 | Fc1ccc(Nc2nccc(-c3c(-c4ccc(F)cc4)nn4c3CCCC4)n2)cc1 [compound 40] | 98% | 99% | 0% | 0% | 85% | 0% | 84%
9 | CCN1CCCC1CNc1nccc(-c2c(-c3ccc(F)cc3)nn3c2CCCC3)n1 (stereo not drawn) [compound 41] | 50% | 0% | 0% | 0% | 79% | 91% | 0%
10 | CC(CO)Nc1nccc(-c2c(-c3ccsc3)nn3c2CCCC3)n1 (stereo not drawn) [compound 42] | 59% | 0% | 99% | 0% | 85% | 100% | 66%
11 | CC(C)Nc1nccc(-c2c(-c3ccsc3)nn3c2CCCC3)n1 [compound 43] | 96% | 90% | 97% | 0% | 92% | 100% | 98%
12 | OC1(CNc2nccc(-c3c(-c4ccc(F)cc4)nn4c3CCCC4)n2)CC1 [compound 44] | 100% | 89% | 65% | 91% | 85% | 0% | 99%
13 | Cc1ccccc1-c1nn2c(c1-c1ccnc(NC(C)C)n1)CCCC2 [compound 45] | 97% | 60% | 76% | 41% | 89% | 85% | 0%
14 | Cc1ccccc1-c1nn2c(c1-c1ccnc(NC(C)CO)n1)CCCC2 (stereo not drawn) [compound 46] | 50% | 0% | 97% | 0% | 74% | 100% | 0%
15 | C[C@H](CO)Nc1nccc(-c2c(-c3ccc(F)cc3)nn3c2CCCC3)n1 [compound 47] | 94% | 0% | 99% | 0% | 91% | 100% | 69%
16 | C[C@@H](CO)Nc1nccc(-c2c(-c3ccc(F)cc3)nn3c2CCCC3)n1 [compound 48] | 99% | 0% | 99% | 0% | 99% | 100% | 99%
17 | Fc1ccc(-c2nn3c(c2-c2ccnc(NC4CCOCC4)n2)CCCC3)cc1 [compound 49] | 90% | 100% | 100% | 76% | 99% | 99% | 100%
18 | Fc1ccc(-c2nn3c(c2-c2ccnc(Nc4ccc(OC(F)(F)F)cc4)n2)CCCC3)cc1 [compound 60] | 71% | 64% | 9% | 0% | 74% | 0% | 91%
19 | c1cc(-c2c(-c3ccsc3)nn3c2CCCC3)nc(NC2CC2)n1 [compound 61] | 98% | 99% | 97% | 79% | 94% | 99% | 98%
20 | OCC(CO)Nc1nccc(-c2c(-c3ccc(F)cc3)nn3c2CCCC3)n1 [compound 63] | 82% | 0% | 9% | 81% | 91% | 100% | 0%
21 | CC(CS(=O)(=O)[O-])Nc1nccc(-c2c(-c3ccc(F)cc3)nn3c2CCCC3)n1.[Na+] (stereo not drawn) [compound 64] | 0% | 0% | 0% | 0% | 0% | 0% | 0%
22 | CONc1nccc(-c2c(-c3ccc(F)cc3)nn3c2CCCC3)n1 [compound 65] | 98% | 31% | 43% | 28% | 65% | 99% | 87%
23 | CC(COC(=O)CCC(=O)O)Nc1nccc(-c2c(-c3ccc(F)cc3)nn3c2CCCC3)n1 (stereo not drawn) [compound 66] | 72% | 0% | 97% | 0% | 88% | 100% | 83%
24 | CC(=O)OCC(C)Nc1nccc(-c2c(-c3ccc(F)cc3)nn3c2CCCC3)n1 (stereo not drawn) [compound 67] | 93% | 78% | 99% | 0% | 100% | 100% | 100%
25 | CC(COC(=O)c1cccnc1)Nc1nccc(-c2c(-c3ccc(F)cc3)nn3c2CCCC3)n1 (stereo not drawn) [compound 68] | 93% | 95% | 95% | 0% | 98% | 100% | 99%
26 | CC(C)Nc1nccc(-c2c(-c3ccc(F)cc3)nn3c2CCCC3)n1.Cl [compound 69] | 100% | 99% | 97% | 59% | 97% | 100% | 100%
27 | CC1CN1c1nccc(-c2c(-c3ccc(F)cc3)nn3c2CCCC3)n1 (stereo not drawn) [compound 81] | 100% | 87% | 99% | 0% | 98% | 95% | 98%
